Assay [1] relates to LPS induced IL-23 (p19/p40) in DC cells differentiated from human PBMC. The experiment in a line: IL23-p19 ELISA, dendritic cells (DC differentiated from human PBMC), IFNγ primed, LPS stimulated. The class given is cell-based. Conditions: human PBMC-derived dendritic cells, 1 μg/ml LPS, 18 hours, 10 pt. A digest of the protocol: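 Human PBMC-derived DCs (GM-CSF 100 ng/ml + IL-4 20 ng/ml, 7 days) were primed 24 h with IFNγ 50 ng/ml, pre-incubated 1 h with compound, then stimulated 18 h with LPS 1 μg/ml at 37° C. Supernatant IL-23 was measured by sandwich chemiluminescent ELISA (anti-p19 capture, anti-p40 detection); cytotoxicity was checked by CellTiter-Glo.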
For orientation: ELISA stands for enzyme-linked immunosorbent assay.

Assay [2] concerns LPS induced IL23p19 in THP-1 cells. The assay can be described thus: LPS Induced IL23p19 in THP-1 Cells (with IFNγ Primed) Assay. The settings on record: Homo sapiens; THP-1 cells primed with IFNγ 50 ng/mL, 1 μg/mL LPS, 18 hours, 10 pt; read-out: IL23-p19 ELISA, THP1-IFNy, LPS, 10 pt EC50. It is filed as cell-based. In a few lines: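 THP-1 cells were primed with IFNγ (50 ng/mL, ~18 h), pre-incubated 1 h with compound, then stimulated 18 h with 1 μg/mL LPS at 37° C. Supernatant IL-23p19 was measured by chemiluminescent sandwich ELISA, and EC50 was fitted. Toxicity was checked on the remaining cells with Cell Titer Glo.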

As a reminder, the EC50 is the concentration giving half of the maximal effect. Consider `O=C(Nc1ccc(CN2CCOCC2)cc1N1CCCCC1)c1csc(-c2cn[nH]c2)n1` [I-50, N-(4-(morpholinomethyl)-2-(piperidin-1-yl)phenyl)-2-(1H-pyrazol-4-yl)thiazole-4-carboxamide], for which the half-maximal effective concentration (EC50) in assay [1] turned out to be 71.7 nM; in assay [2], 130 nM.
In the same order, the values of `O=C(Nc1ccc(CC(=O)N2CCOCC2)cc1N1CCCCC1)c1cccc(-c2cn[nH]c2)n1` [I-51, N-(4-(2-morpholino-2-oxoethyl)-2-(piperidin-1-yl)phenyl)-6-(1H-pyrazol-4-yl)picolinamide] are 154 nM and 65.6 nM.
In the same order, the values of `O=C(Nc1ccc(CC(=O)N2CCOCC2)cc1N1CCCCC1)c1ccc(-c2cn[nH]c2)o1` [I-52, N-(4-(2-morpholino-2-oxoethyl)-2-(piperidin-1-yl)phenyl)-5-(1H-pyrazol-4-yl)furan-2-carboxamide] are 3170 nM and 1060 nM.
In the same order, the values of `O=C(Nc1ccc(CC(=O)N2CCOCC2)cc1N1CCCCC1)c1csc(-c2cn[nH]c2)n1` [I-53, N-(4-(2-morpholino-2-oxoethyl)-2-(piperidin-1-yl)phenyl)-2-(1H-pyrazol-4-yl)thiazole-4-carboxamide] are 408 nM and 167 nM.
Turning to `O=C(Nc1ccc(CCN2CCOCC2)cc1N1CCCCC1)c1cccc(-c2cn[nH]c2)n1` [I-54, N-(4-(2-morpholinoethyl)-2-(piperidin-1-yl)phenyl)-6-(1H-pyrazol-4-yl)picolinamide], the half-maximal effective concentration (EC50) in assay [1] stood at 163 nM; in assay [2], 93 nM.
`O=C(Nc1ccc(CCN2CCOCC2)cc1N1CCCCC1)c1csc(-c2cn[nH]c2)n1` [I-56, N-(4-(2-morpholinoethyl)-2-(piperidin-1-yl)phenyl)-2-(1H-pyrazol-4-yl)thiazole-4-carboxamide]: the EC50 in assay [1] was 9560 nM; in assay [2], 2370 nM.
In the same order, the values of `O=C(Nc1cc(C(=O)N2CCOCC2)ccc1N1CCCCC1)c1cccc(-c2cn[nH]c2)n1` [I-57, N-(5-(morpholine-4-carbonyl)-2-(piperidin-1-yl)phenyl)-6-(1H-pyrazol-4-yl)picolinamide] are 1150 nM and 498 nM.
For `O=C(Nc1cc(C(=O)N2CCOCC2)ccc1N1CCCCC1)c1ccc(-c2cn[nH]c2)o1` [I-58, N-(5-(morpholine-4-carbonyl)-2-(piperidin-1-yl)phenyl)-5-(1H-pyrazol-4-yl)furan-2-carboxamide], the EC50 in assay [1] was found to be 5600 nM; in assay [2], 1500 nM.
For `O=C(Nc1cc(C(=O)N2CCOCC2)ccc1N1CCCCC1)c1csc(-c2cn[nH]c2)n1` [I-59, N-(5-(morpholine-4-carbonyl)-2-(piperidin-1-yl)phenyl)-2-(1H-pyrazol-4-yl)thiazole-4-carboxamide] the same measures were 294 nM and 253 nM.
On to `O=C(Nc1cc(CN2CCOCC2)ccc1N1CCCCC1)c1ccc(-c2cn[nH]c2)o1` [I-61, N-(5-(morpholinomethyl)-2-(piperidin-1-yl)phenyl)-5-(1H-pyrazol-4-yl)furan-2-carboxamide], for which the half-maximal effective concentration (EC50) in assay [1] came to 3840 nM; in assay [2], 767 nM.
Regarding `O=C(Nc1cc(CN2CCOCC2)ccc1N1CCCCC1)c1csc(-c2cn[nH]c2)n1` [I-62, N-(5-(morpholinomethyl)-2-(piperidin-1-yl)phenyl)-2-(1H-pyrazol-4-yl)thiazole-4-carboxamide], the figures for the EC50 in assay [1] and in assay [2] were 311 nM and 306 nM, respectively.
`O=C(Nc1cc(CC(=O)N2CCOCC2)ccc1N1CCCCC1)c1cccc(-c2cn[nH]c2)n1` [I-63, N-(5-(2-morpholino-2-oxoethyl)-2-(piperidin-1-yl)phenyl)-6-(1H-pyrazol-4-yl)picolinamide]: the results for the EC50 in assay [1] and in assay [2] were 160 nM and 150 nM, respectively.
In the same order, the values of `O=C(Nc1cc(CC(=O)N2CCOCC2)ccc1N1CCCCC1)c1ccc(-c2cn[nH]c2)o1` [I-64, N-(5-(2-morpholino-2-oxoethyl)-2-(piperidin-1-yl)phenyl)-5-(1H-pyrazol-4-yl)furan-2-carboxamide] are 1320 nM and 3680 nM.
For `O=C(Nc1cc(CC(=O)N2CCOCC2)ccc1N1CCCCC1)c1csc(-c2cn[nH]c2)n1` [I-65, N-(5-(2-morpholino-2-oxoethyl)-2-(piperidin-1-yl)phenyl)-2-(1H-pyrazol-4-yl)thiazole-4-carboxamide] the same measures were 124 nM and 195 nM.
Consider `O=C(Nc1cc(CCN2CCOCC2)ccc1N1CCCCC1)c1cccc(-c2cn[nH]c2)n1` [I-66, N-(5-(2-morpholinoethyl)-2-(piperidin-1-yl)phenyl)-6-(1H-pyrazol-4-yl)picolinamide], for which the half-maximal effective concentration (EC50) in assay [1] stood at 41.8 nM; in assay [2] it was 92.4 nM.
For `O=C(Nc1cc(CCN2CCOCC2)ccc1N1CCCCC1)c1ccc(-c2cn[nH]c2)o1` [I-67, N-(5-(2-morpholinoethyl)-2-(piperidin-1-yl)phenyl)-5-(1H-pyrazol-4-yl)furan-2-carboxamide] the same measures were 480 nM and 307 nM.
For `O=C(Nc1cc(CCN2CCOCC2)ccc1N1CCCCC1)c1csc(-c2cn[nH]c2)n1` [I-68, N-(5-(2-morpholinoethyl)-2-(piperidin-1-yl)phenyl)-2-(1H-pyrazol-4-yl)thiazole-4-carboxamide], the concentration giving a half-maximal response (EC50) in assay [1] was found to be 47.6 nM; in assay [2], 62.5 nM.
For `CN(CCN1CCOCC1)c1ccc(NC(=O)c2cccc(-c3cn[nH]c3)n2)c(N2CCCCC2)c1` [I-69, N-(4-(methyl(2-morpholinoethyl)amino)-2-(piperidin-1-yl)phenyl)-6-(1H-pyrazol-4-yl)picolinamide] the same measures were 2820 nM and 2630 nM.
On to `CN(CCN1CCOCC1)c1ccc(NC(=O)c2ccc(-c3cn[nH]c3)o2)c(N2CCCCC2)c1` [I-70, N-(4-(methyl(2-morpholinoethyl)amino)-2-(piperidin-1-yl)phenyl)-5-(1H-pyrazol-4-yl)furan-2-carboxamide], for which the results for the EC50 in assay [1] and in assay [2] were 1920 nM and 1440 nM, respectively.
For the compound `CN(CCN1CCOCC1)c1ccc(NC(=O)c2csc(-c3cn[nH]c3)n2)c(N2CCCCC2)c1` [I-71, N-(4-(methyl(2-morpholinoethyl)amino)-2-(piperidin-1-yl)phenyl)-2-(1H-pyrazol-4-yl)thiazole-4-carboxamide], the concentration for a half-maximal effect (EC50) in assay [1] was 2280 nM; in assay [2] it was 19300 nM.
On to `O=C(Nc1ccc(NCCN2CCOCC2)cc1N1CCCCC1)c1cccc(-c2cn[nH]c2)n1` [I-72, N-(4-((2-morpholinoethyl)amino)-2-(piperidin-1-yl)phenyl)-6-(1H-pyrazol-4-yl)picolinamide], for which the EC50 in assay [1] worked out at 1840 nM; in assay [2], 870 nM.
In the case of `O=C(Nc1ccc(NCCN2CCOCC2)cc1N1CCCCC1)c1ccc(-c2cn[nH]c2)o1` [I-73, N-(4-((2-morpholinoethyl)amino)-2-(piperidin-1-yl)phenyl)-5-(1H-pyrazol-4-yl)furan-2-carboxamide], the EC50 in assay [1] amounted to 175 nM; in assay [2], 82.7 nM.
In the same order, the values of `O=C(Nc1ccc(NCCN2CCOCC2)cc1N1CCCCC1)c1csc(-c2cn[nH]c2)n1` [I-74, N-(4-((2-morpholinoethyl)amino)-2-(piperidin-1-yl)phenyl)-2-(1H-pyrazol-4-yl)thiazole-4-carboxamide] are 104 nM and 51.4 nM.

The record behind these values is US10590121B2, “Kinase inhibitors and methods for making and using” (Rigel Pharmaceuticals, Inc., priority 2017, dated 2020).
